Laboratory results published in patent publication US20150315241A1, “Antibiotic Peptides” (priority 2007, published 2015).
Converted amounts (≈) assume the structure as drawn. Read-outs that look alike come from different tables or passages of the source. Where a SMILES comes first, the peptide text is derived from it. Where no end group is shown, it is not given here. [ ]: non-standard residue; d: D form. Hyp = O=C(O)[C@@H]1C[C@@H](O)CN1; Cit = NC(=O)NCCC[C@H](N)C(=O)O; Ac6c = NC1(C(=O)O)CCCCC1; Orn = NCCC[C@H](N)C(=O)O; βAla = NCCC(=O)O

What was measured:
M. luteus ATCC 10240 = format: cell-based, Micrococcus luteus
Protocol: (§1) The minimal inhibition concentrations (MIC) of the apidaecin-derived peptides and peptide-derivatives were determined by a growth inhibition assay using a serial peptide dilution in sterilized round-bottom 96-well plates (polystyrene, U-bottom, Greiner Bio-One GmbH) with a final volume of 100 μL per well. The bacteria, e.g., E. coli BL21 A1, were grown in nutrient broth (NB, Carl Roth GmbH+Co. KG, Karlsruhe, Germany) at 37° C. over night. To each well of the 96-well plate, 50 μL of the overnight culture adjusted to 5×10^6 CFU/mL in 1% TSB were added. Lyophilized peptides and peptidomimetics were dissolved in 1% TSB (tryptic soy broth) or water to give a final concentration of 250 μg/mL. Fifty μL of the peptide or peptidomimetics solution were added to the first well of a row on the plate and mixed. Fifty μL of the first well containing the peptide solution were transferred to the second well, mixed and again 50 μL transferred to the next well and so on. Thereby, a two-fold dilution series was obtained starting at 250 μg/mL in the first well down to 120 ng/mL in the 12th well of a row giving a final peptide or peptidomimetics concentration from 125 μg/mL (well 1) to 60 ng/mL (well 12). Plates were incubated at 37° C. for 20 hrs. The absorbance was measured at 595 nm using a TECAN micro plate spectrophotometer (Tecan, Germany). All peptides and peptidomimetics were measured in triplicates. Sterilized water was used as a negative control.
(§2) The bacteria strains were tested: • Eschericha coli 1103, 10233, BL 21 AI, DC 2, • Klebsiella pneumoniae 681, • Micrococcus luteus ATCC 10240, • Mycobacterium vaccae • Bactillus subtillis 347.

E. coli BL 21 AI = assay: Growth inhibition assay (MIC); format: cell-based, Escherichia coli; conditions: 1% TSB, 37° C., 20 hrs
Protocol: as §1, §2

[1] = test system: S. enterica subsp. Enterica serovar. typhi G10215 ATCC 700408; format: cell-based, Salmonella enterica; conditions: ATCC 700408, 20 h
Protocol: as §1
(§3) The following multidrug resistant bacteria strains were tested: • Eschericha coli 45849 and D31, • Klebsiella pneumoniae 123132 and K6, • Salmonella typhi S5 and Salmonella enterica subsp. enterica serovar Typhimurium (ATCC 700408), • Rhizobium radiobacter (ATCC 15955 deposited as Agrobacterium tumefaciens).

E. coli D31 = format: cell-based, Escherichia coli; conditions: D31, 20 h
Protocol: as §1, §3

[2] = test system: K. Pneumonia K6, ATCC 700603; assay: Growth inhibition assay (MIC); format: cell-based, Klebsiella pneumoniae; conditions: multidrug resistant strain; 1% TSB, 37° C., 20 hrs
Protocol: as §1, §3

Row | Compound | MIC M. luteus ATCC 10240 (M. luteus ATCC 10240; ATCC 10240, 20 h) | MIC E. coli BL 21 AI (E. coli BL 21 AI) | further results
1 | CC[C@H](C)[C@H](NC(=O)[C@H](Cc1ccc(O)cc1)NC(=O)[C@@H](NC(=O)[C@@H]1CCCN1C(=O)[C@H](CCCNC(=N)N)NC(=O)[C@H](CC(N)=O)NC(=O)[C@H](CC(N)=O)NC(=O)[C@H](CCCN)NC(C)=O)C(C)C)C(=O)N1CCC[C@H]1C(=O)N[C@@H](CCC(N)=O)C(=O)N1CCC[C@H]1C(=O)N[C@@H](CCCNC(=N)N)C(=O)N1CCC[C@H]1C(=O)N1CCC[C@H]1C(=O)N[C@@H](Cc1c[nH]cn1)C(=O)N1CCC[C@H]1C(=O)N[C@@H](CCCNC(=N)N)C(=O)NC1(C(N)=O)CCCCC1 [compound 75] (Ac-[Orn]NNRPVYIPQPRPPHPR[Ac6c]-NH2) | 7.81 µg/mL (≈ 3.52 µM) | >125 µg/mL | –
2 | CC[C@H](C)[C@H](NC(=O)[C@H](CCCNC(=N)N)NC(=O)[C@@H]1CCCN1C(=O)[C@H](Cc1c[nH]cn1)NC(=O)[C@@H]1CCCN1C(=O)[C@@H]1CCCN1C(=O)[C@H](CCCNC(=N)N)NC(=O)[C@@H]1CCCN1C(=O)[C@H](CCCNC(N)=O)NC(=O)[C@@H]1CCCN1C(=O)[C@@H](NC(=O)[C@H](Cc1ccc(O)cc1)NC(=O)[C@@H](NC(=O)[C@@H]1CCCN1C(=O)[C@H](CCCNC(=N)N)NC(=O)[C@H](CC(N)=O)NC(=O)[C@H](CC(N)=O)NC(=O)CN)C(C)C)[C@@H](C)CC)C(N)=O [compound 89] (H-GNNRPVYIP[Cit]PRPPHPRI-NH2) | – | 1.95 µg/mL (≈ 0.913 µM) | MIC M. luteus ATCC 10240 (M. luteus ATCC 10240; 1% TSB, 37° C., 20 hrs): 15.63 µg/mL (≈ 7.32 µM)
3 | CC[C@H](C)[C@H](NC(=O)[C@H](Cc1ccc(O)cc1)NC(=O)[C@@H](NC(=O)[C@@H]1CCCN1C(=O)[C@H](CCCNC(=N)N)NC(=O)[C@H](CC(N)=O)NC(=O)[C@H](CC(N)=O)NC(=O)[C@H](CCCN)NC(C)=O)C(C)C)C(=O)N1CCC[C@H]1C(=O)N[C@@H](CCCN)C(=O)N1C[C@H](O)C[C@H]1C(=O)N[C@@H](CCCNC(=N)N)C(=O)N1CCC[C@H]1C(=O)N1CCC[C@H]1C(=O)N[C@@H](Cc1c[nH]cn1)C(=O)N1CCC[C@H]1C(=O)N[C@@H](CCCNC(=N)N)C(=O)N[C@@H](CC(C)C)C(N)=O [compound 103] (Ac-[Orn]NNRPVYIP[Orn][Hyp]RPPHPRL-NH2) | – | 1.95 µg/mL (≈ 0.883 µM) | MIC M. luteus ATCC 10240 (M. luteus ATCC 10240; 1% TSB, 37° C., 20 hrs): 3.91 µg/mL (≈ 1.77 µM)
4 | CC[C@H](C)[C@H](NC(=O)[C@H](Cc1ccc(O)cc1)NC(=O)[C@@H](NC(=O)[C@@H]1CCCN1C(=O)[C@H](CCCNC(=N)N)NC(=O)[C@H](CC(N)=O)NC(=O)[C@H](CC(N)=O)NC(=O)CN)C(C)C)C(=O)N1CCC[C@H]1C(=O)N[C@@H](CCC(N)=O)C(=O)N1CCC[C@H]1C(=O)N[C@@H](CCCNC(=N)N)C(=O)N1CCC[C@H]1C(=O)N1CCC[C@H]1C(=O)N[C@@H](Cc1c[nH]cn1)C(=O)N1CCC[C@H]1C(=O)N[C@@H](CCCNC(=N)N)C(=O)N[C@H](CC(C)C)C(N)=O [compound 77] (H-GNNRPVYIPQPRPPHPR[dL]-NH2) | 31.25 µg/mL (≈ 14.8 µM) | >125 µg/mL | –
5 | GNNRPVYIPQPRPPHPRF-NH2 [compound 44] | – | – | MIC S. enterica subsp. Enterica serovar. typhi G10215 ATCC 700408 [1]: 4 µg/mL; MIC E. coli D31 (E. coli D31): 128 µg/mL; MIC K. Pneumonia K6, ATCC 700603 [2]: 64 µg/mL
6 | CC[C@H](C)[C@H](NC(=O)[C@H](CCCNC(=N)N)NC(=O)[C@@H]1CCCN1C(=O)[C@H](Cc1c[nH]cn1)NC(=O)[C@@H]1CCCN1C(=O)[C@@H]1CCCN1C(=O)[C@H](CCCNC(=N)N)NC(=O)[C@@H]1CCCN1C(=O)[C@H](CCC(N)=O)NC(=O)[C@@H]1CCCN1C(=O)[C@@H](NC(=O)[C@H](Cc1ccc(O)cc1)NC(=O)[C@@H](NC(=O)[C@@H]1CCCN1C(=O)[C@H](CCCNC(=N)N)NC(=O)[C@H](CC(N)=O)NC(=O)[C@H](CC(N)=O)NC(=O)[C@H](CCCN)NC(C)=O)C(C)C)[C@@H](C)CC)C(N)=O [compound 63] (Ac-[Orn]NNRPVYIPQPRPPHPRI-NH2) | 3.91 µg/mL (≈ 1.77 µM) | 3.91 µg/mL (≈ 1.77 µM) | –
7 | H-GNNRPVYIPQPRPPHPR-OH [compound 144] | >125 µg/mL | >125 µg/mL | –
8 | CC[C@H](C)[C@H](NC(=O)[C@H](Cc1ccc(O)cc1)NC(=O)[C@@H](NC(=O)[C@@H]1CCCN1C(=O)[C@H](CCCNC(=N)N)NC(=O)[C@H](CC(N)=O)NC(=O)[C@H](CC(N)=O)NC(=O)[C@H](CCCN)NC(C)=O)C(C)C)C(=O)N1CCC[C@H]1C(=O)N[C@@H](CCCNC(=N)N)C(=O)N1CCC[C@H]1C(=O)N[C@@H](CCCNC(=N)N)C(=O)N1CCC[C@H]1C(=O)N1CCC[C@H]1C(=O)N[C@@H](Cc1c[nH]cn1)C(=O)N1CCC[C@H]1C(=O)N[C@@H](CCCNC(N)=O)C(=O)N[C@@H](CC(C)C)C(N)=O [compound 150] (Ac-[Orn]NNRPVYIPRPRPPHP[Cit]L-NH2) | 32 µg/mL (≈ 14.3 µM) | 32 µg/mL (≈ 14.3 µM) | –
9 | CC[C@H](C)[C@H](NC(=O)[C@H](Cc1ccc(O)cc1)NC(=O)[C@@H](NC(=O)[C@@H]1CCCN1C(=O)[C@H](CCCNC(=N)N)NC(=O)[C@H](CC(N)=O)NC(=O)[C@H](CC(N)=O)NC(=O)CN)C(C)C)C(=O)N1CCC[C@H]1C(=O)N[C@@H](CCC(N)=O)C(=O)N1CCC[C@H]1C(=O)N[C@@H](CCCNC(=N)N)C(=O)N1CCC[C@H]1C(=O)N1CCC[C@H]1C(=O)N[C@@H](Cc1c[nH]cn1)C(=O)N1CCC[C@H]1C(=O)N[C@@H](CCCNC(=N)N)C(=O)NC1(C(N)=O)CCCCC1 [compound 80] (H-GNNRPVYIPQPRPPHPR[Ac6c]-NH2) | 15.63 µg/mL (≈ 7.37 µM) | >125 µg/mL | –
10 | CC[C@H](C)[C@H](NC(=O)[C@H](Cc1ccc(O)cc1)NC(=O)[C@@H](NC(=O)[C@@H]1CCCN1C(=O)[C@H](CCCNC(=N)N)NC(=O)[C@H](CC(N)=O)NC(=O)[C@H](CC(N)=O)NC(=O)[C@H](CCCN)NC(C)=O)C(C)C)C(=O)N1CCC[C@H]1C(=O)N[C@@H](CCC(N)=O)C(=O)N1CCC[C@H]1C(=O)N[C@@H](CCCNC(=N)N)C(=O)N1CCC[C@H]1C(=O)N1CCC[C@H]1C(=O)N[C@@H](Cc1c[nH]cn1)C(=O)N1CCC[C@H]1C(=O)N[C@@H](CCCNC(=N)N)C(=O)NCCC(N)=O [compound 74] (Ac-[Orn]NNRPVYIPQPRPPHPR[βAla]-NH2) | 7.81 µg/mL (≈ 3.61 µM) | >125 µg/mL | –
11 | H-GNNRPVYIPQPRPPHPAL-NH2 [compound 139] | >125 µg/mL | >125 µg/mL | –
12 | CC[C@H](C)[C@H](NC(=O)[C@H](CCCNC(=N)N)NC(=O)[C@@H]1CCCN1C(=O)[C@H](Cc1c[nH]cn1)NC(=O)[C@@H]1CCCN1C(=O)[C@@H]1CCCN1C(=O)[C@H](CCCNC(=N)N)NC(=O)[C@@H]1CCCN1C(=O)[C@H](CCC(N)=O)NC(=O)[C@@H]1CCCN1C(=O)[C@@H](NC(=O)[C@H](Cc1ccc(O)cc1)NC(=O)[C@@H](NC(=O)[C@@H]1CCCN1C(=O)[C@H](CCCNC(=N)N)NC(=O)[C@H](CC(N)=O)NC(=O)[C@H](CC(N)=O)NC(=O)[C@@H](N)CCCN)C(C)C)[C@@H](C)CC)C(N)=O [compound 62] (H-[Orn]NNRPVYIPQPRPPHPRI-NH2) | 7.81 µg/mL (≈ 3.61 µM) | 1.95 µg/mL (≈ 0.901 µM) | –
13 | CC[C@H](C)[C@H](NC(=O)[C@H](Cc1ccc(O)cc1)NC(=O)[C@@H](NC(=O)[C@@H]1CCCN1C(=O)[C@H](CCCNC(=N)N)NC(=O)[C@H](CC(N)=O)NC(=O)[C@H](CC(N)=O)NC(=O)CN)C(C)C)C(=O)N1CCC[C@H]1C(=O)N[C@@H](CCC(N)=O)C(=O)N1CCC[C@H]1C(=O)N[C@@H](CCCNC(=N)N)C(=O)N1CCC[C@H]1C(=O)N1CCC[C@H]1C(=O)N[C@@H](Cc1c[nH]cn1)C(=O)N1CCC[C@H]1C(=O)N[C@@H](CCCNC(=N)N)C(=O)NCCC(N)=O [compound 79] (H-GNNRPVYIPQPRPPHPR[βAla]-NH2) | 62.5 µg/mL (≈ 30.3 µM) | >125 µg/mL | –
14 | H-GNNRPVYIAQPRPPHPRL-NH2 [compound 140] | 125 µg/mL | >125 µg/mL | –
15 | H-GNNRPVYIAQPRPPHPAL-NH2 [compound 136] | >125 µg/mL | >125 µg/mL | –
16 | CC[C@H](C)[C@H](NC(=O)[C@H](Cc1ccc(O)cc1)NC(=O)[C@@H](NC(=O)[C@@H]1CCCN1C(=O)[C@H](CCCNC(=N)N)NC(=O)[C@H](CC(N)=O)NC(=O)[C@H](CC(N)=O)NC(=O)[C@@H](N)CCCN)C(C)C)C(=O)N1CCC[C@H]1C(=O)N[C@@H](CCCNC(=N)N)C(=O)N1CCC[C@H]1C(=O)N[C@@H](CCCNC(=N)N)C(=O)N1CCC[C@H]1C(=O)N1CCC[C@H]1C(=O)N[C@@H](Cc1c[nH]cn1)C(=O)N1CCC[C@H]1C(=O)N[C@@H](CCCNC(N)=O)C(=O)N[C@@H](CC(C)C)C(N)=O [compound 138] (H-[Orn]NNRPVYIPRPRPPHP[Cit]L-NH2) | 64 µg/mL (≈ 29.2 µM) | 64 µg/mL (≈ 29.2 µM) | –
